Laboratory results taken from US9079936B2, “Derivatives of APF and methods of use” (University of Maryland, Baltimore, priority 2007, dated 2015).
“Also recorded” adds a separate entry of the source.

How the values were obtained:
[1] = test system: IC/PBS cell monolayers; assay: Paracellular permeability assay (14C-mannitol and 3H-inulin flux, Transwell); format: cell-based, human; settings: IC/PBS cells, 16 or 30 days treatment
Procedure: Flux assays were performed using 12-mm Transwell culture plates (Corning Incorporated, Corning, N.Y.), as previously described (Keay et al., 2000). Cells were plated at 4×10^5 cells/cm^2 on the insert and grown in DMEM-F12 medium containing 10% heat-inactivated FBS, 1% antibiotic solution, 1% L-glutamine, 0.25 units/ml insulin (all from Sigma, St. Louis, Mo.), and 5 ng/ml hEGF (R & D Systems, Minneapolis, Minn.) to establish tight monolayers. On day 2, the medium was changed to MEM (GIBCO/Invitrogen) containing 1% antibiotic/antimycotic solution and 1% L-glutamine (Sigma).
Two different membrane impermeable molecules, [^14C]-mannitol (molecular weight: 184 Daltons) and [3H]-inulin (molecular weight: 5,200 Daltons), served as paracellular tracers. At the beginning of the flux assay, both sides of the bathing wells of Transwell filters were replaced with fresh medium containing either 5 mM unlabeled mannitol or 0.5 mM unlabeled inulin. Each tracer was added at a final concentration of 3.6 nM for [^14C]-mannitol and 0.36 nM for [^3H]-inulin to the apical bathing wells. The basal bathing well contained the same medium as the apical compartment but without tracers. Flux assays were performed at 37° C.; basal medium was collected at 0.5-6 hrs after addition of [^14C]-mannitol or [^3H]-inulin, and the amount of radioactivity determined using a Beckman LS 5000 scintillation counter. Results were expressed as percentage of total counts for each tracer.
(§1) For the permeability assay, the percentage of total counts in the basal medium was determined in four experiments (using different IC/PBS cell donors), and expressed as mean±standard deviation. Crossover point analysis was performed for qRT-PCR data, and expression of each gene was quantified relative to β-actin; this value was expressed as mean±standard error of the mean for duplicate runs performed on two separate occasions. ^3H-thymidine incorporation was determined in triplicate on two separate occasions, and the CPM expressed as mean±standard deviation.

[2] = test system: APF activity in normal bladder epithelial cells; assay: Inhibition of APF antiproliferative activity in APF-treated normal bladder cells (3H-thymidine incorporation); format: cell-based, human; settings: pretreatment with derivative, then active synthetic APF (as-APF), IC/PBS and/or normal bladder cells
Procedure: (§2) IC/PBS cells were incubated with varying concentrations of GalGalNAc-TV(D-proline)AAVVVA (SEQ ID NO:11), wherein such glycosylated peptide is SEQ ID NO:30). Cell proliferation was determined by ^3H-thymidine incorporation; gene expression by quantitative RT-PCR; specific protein expression by Western blot analysis; tight junction formation by confocal immunofluorescence microscopy; and paracellular permeability by ^14C-mannitol and ^3H-inulin flux between confluent cells on Transwell plates. Significance of the difference in mean values between groups was determined by an analysis of variance for each assay.
as §2, with “a derivative shown to inhibit APF activity in normal bladder cells—GalGalNAc-TV-(D-proline)-AAVVVA” for “GalGalNAc-TV(D-proline)AAVVVA”, “NO: 11),” for “NO:11),”, “RT-PCR;” for “RT-PCR; specific protein expression by Western blot analysis;”, “^14H-inulin” for “^3H-inulin”
(§3) Cell proliferation was measured by ^3H-thymidine incorporation into explanted normal human bladder epithelial cells, as previously described (Keay et al., 2000; Keay et al., 2001; Keay et al., 2004; Keay et al., 2003; Saitoh et al., 2001). Significant inhibition of ^3H-thymidine incorporation was defined as a mean decrease in counts per minute of greater than 2 standard deviations from the mean of control cells for each plate.

[3] = test system: bladder epithelial cells from IC/PBS patients; assay: IC/PBS cell proliferation (3H-thymidine incorporation); format: cell-based, human; settings: for effect on IC cell proliferation: 0.25 uM, 9, 16, 23 and 30 day treatment (Example 12)
Procedure: as §2
Study of the effect of APF proline on IC cell proliferation (as measured by thymidine incorporation) following 9, 16, 23, and 30 day treatment with 0.25 uM of the agent.
as §2, with “a derivative shown to inhibit APF activity in normal bladder cells—GalGalNAc-TV-(D-proline)-AAVVVA” for “GalGalNAc-TV(D-proline)AAVVVA”, “NO: 11),” for “NO:11),”, “RT-PCR;” for “RT-PCR; specific protein expression by Western blot analysis;”, “^14H-inulin” for “^3H-inulin”
IC/PBS cells produce APF and as a result have a profound decrease in cell proliferation. […] Cells were treated with 1 nM D-proline APF twice weekly, and thymidine incorporation was determined at 9, 16, 23 and 30 days.
as §3

[4] = test system: tight junction proteins in IC/PBS cells; assay: Immunofluorescence confocal microscopy of tight junction proteins; format: cell-based, human; settings: IC/PBS cell explants treated for 9 days
Procedure: For immunofluorescence, cells were fixed using ethanol/acetone (1:1) for 15 minutes at room temperature, washed 3 times with PBS and incubated with fluorescein isothiocyanate (FITC) labeled mouse monoclonal anti-ZO-1 (5 μg/ml); or unlabeled mouse monoclonal anti-occludin (5 μg/ml) or anti-claudin 4 (3 μg/ml); or unlabeled rabbit polyclonal anti-claudin 1 (3 μg/ml), anti-claudin 8 (8 μg/ml), or anti-claudin 12 (5 μg/ml) antibodies (all from Zymed, South San Francisco, Calif.) diluted in PBS for 2 hours at 37 C. Cells incubated with unlabeled mouse monoclonal primary antibodies were then washed 3 times with PBS and further incubated with FITC-labeled secondary goat anti-mouse IgG antibody (Zymed) diluted in PBS, while cells incubated with unlabeled rabbit polyclonal primary antibodies were washed and further incubated for 2 hours at 37 C with goat anti-rabbit IgG (Zymed) diluted in PBS. Following an additional 5 washes with PBS, the cells were examined using an LSM510 confocal laser scanning microscope (Carl Zeiss, Oberkochen, Germany). Negative controls for the method included cells incubated without primary and secondary antibodies as well as cells incubated with secondary antibody alone.

[5] = test system: normal human bladder epithelial cells; assay: 3H-thymidine incorporation into explanted normal human bladder epithelial cells; format: cell-based
Procedure: Cell proliferation was measured by ^3H-thymidine incorporation into explanted normal human bladder epithelial cells, as previously described (Keay et al., 2001; Keay et al., 2000; Keay et al., 2003a; Keay et al., 2003b; Keay et al., 1996). Briefly, purified native or synthetic APF (or the appropriate mock preparation) was diluted in serum-free MEM (containing only glutamine and antibiotics/antimycotics) and applied to the cells; cell controls received serum-free MEM alone. Cells were then incubated at 37° C. in a 5% CO2 atmosphere for 48 hours. The cells were then labeled with 1 μCi/well ^3H-thymidine for 4 hours, trypsinized, insoluble cell contents harvested and methanol-fixed onto glass fiber filter paper, and the amount of radioactivity incorporated determined. […]
The present example concerns exemplary comprehensive structure-activity relationship (SAR) studies on the peptide portion of antiproliferative factor (APF). […] Antiproliferative activity of each derivative was determined by inhibition of ^3H-thymidine incorporation in primary normal human bladder epithelial cells.
^3H-Thymidine Incorporation. […] The cell contents harvested and methanol-fixed onto glass fiber filter paper, and the amount of radioactivity incorporated determined. […]

[6] = test system: tight junction protein gene expression in IC/PBS cells; assay: qRT-PCR for tight junction gene expression; format: cell-based, human; settings: 16 and 30 day treatment, relative to β-actin
Procedure: Total RNA was extracted from IC/PBS and normal control epithelial cell explants using the RNEasy Plus Mini Kit (Qiagen) according to the manufacturer's protocol. Quantitative real time RT-PCR for tight junction gene expression was performed using Quantitect Primers (Qiagen), SYBR Green RT-PCR kit reagents (Qiagen), and a Roche 480 Light-Cycler. Samples were tested in triplicate runs, and specific mRNA levels quantified and compared to mRNA levels for β-actin using LightCycler 480 real-time PCR analysis software (version 1.5).
as §1

[7] = listed as GalGalNAc-TV(D-proline)AAVVVA
[8] = listed as GalGalNAc-TV-(D-proline)-AAVVVA

GalGalNAc-TV(D-proline)AAVVVA [D-proline APF]
paracellular permeability (14C-mannitol, 3H-inulin) [1]: normalized; also recorded: significantly decreased paracellular permeability of both tracer molecules
paracellular permeability (14C-mannitol, 3H-inulin) [1, 7]: decrease permeability of IC/PBS cells
paracellular permeability (14C-mannitol, 3H-inulin) ([1]; listed as GalGalNAc-TV-(D-Proline)-AAVVVA): significantly decrease permeability of IC/PBS cells
paracellular permeability (14C-mannitol, 3H-inulin) [1, 8]: normalize IC/PBS cell paracellular permeability
blocking of APF antiproliferative activity [2]: inhibited this activity in nanomolar concentrations in a dose-dependent manner
blocking of APF antiproliferative activity [2, 7]: blocked APF activity
blocking of APF antiproliferative activity [2, 8]: blocked APF antiproliferative activity; also recorded: blocks APF's inhibitory effects on cell proliferation
stimulation of IC/PBS cell proliferation ([3]; 1 nM twice weekly, thymidine incorporation at 9, 16, 23 and 30 days (Example 14)): stimulated IC/PBS cell proliferation by Day 16
effect on IC cell proliferation [3]: significantly stimulated at both time points
effect on IC cell proliferation ([3]; listed as APF proline): Optimal stimulation of IC cell proliferation was observed up to the level of normal bladder cell proliferation
tight junction protein expression and localization [4]: also increased
antiproliferative activity ([5]; 3H-thymidine incorporation, normal bladder epithelial cells): did not have any intrinsic antiproliferative activity
antiproliferative activity normalized to as-APF ([5]; inactive = no significant activity at <25 μM (cut-off limit of the assay)): inactive
tight junction protein mRNA expression [6]: stimulation of tight junction protein expression; also recorded: stimulate mRNA expression for ZO-1, occludin, and specific claudin (1, 4, 8, and 12)
tight junction protein mRNA expression [6, 7]: significantly increase zonula occludens-1 and claudin 1, 4 and 8 expression
tight junction protein mRNA expression [6, 8]: significantly increased ZO-1, occludin, and claudin 1, 4, 8, and 12 expression
